Data published in article PMC3124137 (Experimental Diabetes Research, 2011).
Entries after “also recorded” stand apart in the source; their conditions may differ.

Tests used:
[1] = system: streptozotocin-induced type 1 diabetic rats; experiment: Blood glucose (Accu-Chek); assay type: in vivo, rat (male Sprague-Dawley); settings: STZ-diabetic rats; for effect of treatment on blood glucose level: one month of treatment, N = 24, P < .05 significant
Experimental: (§1) Groups D, DI, DE, DA, DIA and DEA were induced to type 1 diabetes mellitus by a single intravenous injection of streptozotocin (STZ; 85 mg/kg bw) (Sigma Chemical Co., Saint Louis, Mo, USA) in saline acidified to pH 4.5 with 0.1 M citrate buffer. Three days later, nonfasting blood glucose level was measured using Accu-Chek (Accu-Chek Instant Test; Roche Diagnostics GmbH, Mannheim, Germany); a level of ≥250 mg/dL confirmed type 1 diabetes mellitus.
(§2) All the animals were weighed weekly, and blood glucose levels were determined using Accu-Chek (Accu-Chek instant test, Roche Diagnostics GmbH, Mannheim, Germany) weekly during one month of treatment.

[2] = Plasma active GLP-1 (ELISA); assay type: in vivo, rat (male Sprague-Dawley); settings: STZ-diabetic rats; active GLP-1 (7–36 and 7–37) by ELISA over one month, N = 6
Experimental: as §1
Rats were anesthetized, and blood was collected from the sublingual vein on days 1, 7, 14, 21, and 28 of the treatment period, at a constant time range of 9 to 10 AM. […] A relative fluorescent unit (RFU) curve was plotted using these standards (Figure 1).

[3] = target: T1, GLP-1 receptor at the cardiomyocytes (Rattus norvegicus, UniProt P32301); experiment: Perfusion of rat heart with ^125I-GLP-1: binding at the cardiomyocytes (CHAPS-treated); parameters: species or system rat (male Sprague-Dawley); settings: STZ-diabetic rats, one month of treatment, compared with diabetic (D) and normal (N)
T1 construct: from tissue; host or cells: in situ perfused heart of male Sprague-Dawley rats (normal, streptozotocin-diabetic and treated groups)
T1 sequence (P32301 22-463): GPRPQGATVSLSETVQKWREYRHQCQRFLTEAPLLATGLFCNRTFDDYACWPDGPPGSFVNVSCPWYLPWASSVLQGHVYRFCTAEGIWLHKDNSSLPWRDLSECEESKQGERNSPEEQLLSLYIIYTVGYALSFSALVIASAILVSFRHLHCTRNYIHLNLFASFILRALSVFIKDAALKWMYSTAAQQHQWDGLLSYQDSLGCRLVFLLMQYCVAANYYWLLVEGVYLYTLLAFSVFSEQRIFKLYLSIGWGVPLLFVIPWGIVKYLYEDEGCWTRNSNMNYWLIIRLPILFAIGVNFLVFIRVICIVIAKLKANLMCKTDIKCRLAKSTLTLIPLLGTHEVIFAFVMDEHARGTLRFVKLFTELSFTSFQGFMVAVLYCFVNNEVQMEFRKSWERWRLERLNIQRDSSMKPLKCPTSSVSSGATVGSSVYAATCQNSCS
Experimental: (§3) In addition, the left and right lungs were tied in order to block the blood flow to them and to other organs. The aorta was slightly cut, and a polyethylene catheter was inserted (from cephalad to caudad) into its lumen to reach the aortic valve. The right atrium was punctured, and another catheter was inserted to carry out the perfusate. Both catheters were secured with a suture. A 50 mL syringe filled with heparinized Ringer-Lock buffer containing 20 meq/L K ^+, oxygenated with 95% O2, 5% CO2 at 37°C linked to an infusion pump was attached to the inlet. This solution cleared the heart from blood and clots for 15 minutes; infusion of a Ringer-Lock buffer solution for another 15 minutes cleared the heart from heparin. These steps were followed by the perfusion of a buffer containing 8.25 × 10^−4 nM/L [^125I] […] The perfusate was collected for 20 minutes at specific time intervals (between 0-1, 1-2, 2-3, 3-4, 4-5, 5-6, 6-7, 7-8, 8-9, 9-10, 10–12, 12–15, 15–20 minutes); after each collection, 500 μL of the sample was put in a liquid scintillation vial containing 4 mL of Ecolume scintillation cocktail, which was later assayed for radioactivity by a liquid scintillation analyzer. […]

type 2 diabetic mice = settings: cited from earlier work
[4] = target: T2, GLP-1 receptor at the coronary endothelium (Rattus norvegicus, UniProt P32301); experiment: Perfusion of rat heart with ^125I-GLP-1: binding at the coronary endothelium (buffer alone, CHAPS-untreated); parameters: species or system rat (male Sprague-Dawley)
T2 construct: from tissue; host or cells: in situ perfused heart of male Sprague-Dawley rats (normal, streptozotocin-diabetic and treated groups)
T2 sequence (P32301 22-463): T1 sequence (P32301 22-463)
Experimental: as §3

[5] = system: nitric oxide synthase production by endothelial cells; settings: ref 28 (Dong et al.); cited from earlier work
Description: (§4) Furthermore, this effect was eliminated upon the removal of the endothelial lining.

[6] = system: left ventricular hypertrophy; settings: compared with angiotensin receptor blockers; cited from earlier work
Description: Diabetes mellitus currently affects more than 170 million individuals worldwide. Other than hyperglycemia, diabetes mellitus can cause a 2-3-fold increase in the occurrence of cardiovascular disease (CVD). […] Receptor signaling on the pancreas leads to enhanced insulin biosynth ...

[7] = Body weight after one month of treatment; assay type: in vivo, rat (male Sprague-Dawley); settings: STZ-diabetic rats, N = 24
Experimental: as §1, §2

[8] = in vivo; cited from earlier work
Description: The intravenous injection of streptozotocin (STZ)—a glucosamine-nitrosourea antibiotic with structural similarity to glucose that is readily taken up by the pancreatic β cells—causes β cells toxicity and ultimately necrosis, leading to deficiency in insulin secretion. The use of Streptozotocin to induce type 1 diabetes in rats is advantageous, because it is easy, fast, and the effect of diabetes on the heart can be evaluated. Our aim was to assess the long-term effects of treatments on ...

[9] = in vivo; cited from earlier work; remark: listed apart in the source
Description: Incretin mimetics have been introduced in the market to be used as therapies for diabetes mellitus [[2 ...

[10] = system: GLP-1 receptors on the human coronary endothelial cells; parameters: method as in earlier work; settings: ref 27 (Nystrom et al.); cited from earlier work
[11] = cited from earlier work
Description: as §4

## COCCCOc1cc(C[C@@H](C[C@H](N)[C@@H](O)C[C@H](C(=O)NCC(C)(C)C(N)=O)C(C)C)C(C)C)ccc1OC [Aliskiren]
[1]; Aliskiren 50 mg/kg oral qd, after one month
  fraction of treated rats with normal blood glucose levels: 12.5%
[1]
  effect of treatment on blood glucose level: significantly decreased blood glucose levels compared to the untreated
[2]
  effect of treatment on plasma GLP-1 level: normalized
[3]
  effect of treatment on GLP-1 binding affinity (τ) at the cardiomyocytes: did not lower the affinity
Type 2 diabetic mice
  insulin sensitivity: improves insulin sensitivity
[4]; STZ-diabetic rats, one month of treatment, compared with diabetic (D) and normal (N)
  effect of treatment on GLP-1 binding affinity (τ) at the coronary endothelium: did not alter τ from diabetics in the CE; also recorded: no significant change in its affinity; also recorded: did not ameliorate it
[4]; treated STZ-diabetic rats compared to the normal
  effect of treatment on K d of GLP-1 at the coronary endothelium: extremely significant increase in K d constant
[5]
  nitric oxide synthase production by endothelial cells: significantly restored
[6]
  left ventricular hypertrophy: reduce left ventricular hypertrophy as efficiently as angiotensin receptor blockers (ARBs)

## Exendin-4: GLP-1 analogue, GLP-1 receptor agonist (Sigma); group DE, 0.03 μg/kg ip bid
[1]
  effect of treatment on blood glucose level: Although not significant, Exendin-4 treatment showed slight improvement
[7]
  body weight vs diabetic untreated: significant increase in their body weight
[2]
  effect of treatment on plasma GLP-1 level: normalized

## Insulin glargine
[8]
  duration of action: < 24 h

## glucagon-like peptide-1 [GLP-1]
[9]
  physiologic half-life: very short physiologic half-life
[10]
  vasodilation on binding to GLP-1 receptors: induce vasodilation
[11]
  vasodilation on GLP-1 infusion: induce vasodilation
